Data published in ChEMBL document CHEMBL3988442, “University of Dundee, Small-Polar-MMV Screening Library” (2021).
“And” between values parts separate entries of the source, which are not always exact repeats. Identical values can stand only once.

Legend:
Histidine--tRNA ligase [1] = molecular target: T1, Histidine--tRNA ligase (Trypanosoma cruzi (strain CL Brener), UniProt Q4DA54); experiment: Trypanosoma cruzi histidyl tRNA synthetase (Tc-HisRS); format: functional
T1 sequence (Q4DA54 whole entry): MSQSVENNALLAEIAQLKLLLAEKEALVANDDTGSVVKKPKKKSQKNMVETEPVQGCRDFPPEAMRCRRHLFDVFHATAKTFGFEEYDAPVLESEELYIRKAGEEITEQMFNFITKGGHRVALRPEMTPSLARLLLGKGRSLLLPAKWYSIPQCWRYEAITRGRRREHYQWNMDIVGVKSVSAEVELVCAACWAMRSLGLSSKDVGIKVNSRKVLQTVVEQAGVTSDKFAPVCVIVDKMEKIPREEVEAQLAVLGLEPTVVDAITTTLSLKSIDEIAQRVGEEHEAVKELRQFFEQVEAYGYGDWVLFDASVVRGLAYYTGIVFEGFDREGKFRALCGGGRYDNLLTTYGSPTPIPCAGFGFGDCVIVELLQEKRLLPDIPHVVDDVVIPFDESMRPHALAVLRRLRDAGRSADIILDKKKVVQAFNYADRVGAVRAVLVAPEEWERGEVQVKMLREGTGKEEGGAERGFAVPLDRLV

Histidine--tRNA ligase [2] = molecular target: T2, Histidine--tRNA ligase (Leishmania infantum, UniProt A4I591); experiment: Leishmania infantum Histidine tRNA synthetase (LdHisRS); format: functional
T2 sequence (A4I591 whole entry): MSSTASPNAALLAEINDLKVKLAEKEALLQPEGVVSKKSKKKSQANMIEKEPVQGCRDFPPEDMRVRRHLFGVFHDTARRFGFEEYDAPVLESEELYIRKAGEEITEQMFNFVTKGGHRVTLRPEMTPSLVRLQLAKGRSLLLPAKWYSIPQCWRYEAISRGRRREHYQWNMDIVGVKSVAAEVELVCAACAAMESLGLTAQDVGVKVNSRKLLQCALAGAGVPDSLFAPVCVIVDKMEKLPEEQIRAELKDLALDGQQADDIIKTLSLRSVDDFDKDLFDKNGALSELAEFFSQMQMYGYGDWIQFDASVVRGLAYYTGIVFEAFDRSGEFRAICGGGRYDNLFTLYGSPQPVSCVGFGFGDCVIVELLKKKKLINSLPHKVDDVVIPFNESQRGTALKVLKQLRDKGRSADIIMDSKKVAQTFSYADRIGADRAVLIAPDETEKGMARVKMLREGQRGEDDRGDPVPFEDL

[3] = molecular target: T3, Ubiquitin-activating enzyme e1, putative (Leishmania donovani (strain BPK282A1), UniProt E9BSI1); experiment: Leishmania donovani Ubiquitin Activating Enzyme (LdE1); format: functional
T3 sequence (E9BSI1 whole entry): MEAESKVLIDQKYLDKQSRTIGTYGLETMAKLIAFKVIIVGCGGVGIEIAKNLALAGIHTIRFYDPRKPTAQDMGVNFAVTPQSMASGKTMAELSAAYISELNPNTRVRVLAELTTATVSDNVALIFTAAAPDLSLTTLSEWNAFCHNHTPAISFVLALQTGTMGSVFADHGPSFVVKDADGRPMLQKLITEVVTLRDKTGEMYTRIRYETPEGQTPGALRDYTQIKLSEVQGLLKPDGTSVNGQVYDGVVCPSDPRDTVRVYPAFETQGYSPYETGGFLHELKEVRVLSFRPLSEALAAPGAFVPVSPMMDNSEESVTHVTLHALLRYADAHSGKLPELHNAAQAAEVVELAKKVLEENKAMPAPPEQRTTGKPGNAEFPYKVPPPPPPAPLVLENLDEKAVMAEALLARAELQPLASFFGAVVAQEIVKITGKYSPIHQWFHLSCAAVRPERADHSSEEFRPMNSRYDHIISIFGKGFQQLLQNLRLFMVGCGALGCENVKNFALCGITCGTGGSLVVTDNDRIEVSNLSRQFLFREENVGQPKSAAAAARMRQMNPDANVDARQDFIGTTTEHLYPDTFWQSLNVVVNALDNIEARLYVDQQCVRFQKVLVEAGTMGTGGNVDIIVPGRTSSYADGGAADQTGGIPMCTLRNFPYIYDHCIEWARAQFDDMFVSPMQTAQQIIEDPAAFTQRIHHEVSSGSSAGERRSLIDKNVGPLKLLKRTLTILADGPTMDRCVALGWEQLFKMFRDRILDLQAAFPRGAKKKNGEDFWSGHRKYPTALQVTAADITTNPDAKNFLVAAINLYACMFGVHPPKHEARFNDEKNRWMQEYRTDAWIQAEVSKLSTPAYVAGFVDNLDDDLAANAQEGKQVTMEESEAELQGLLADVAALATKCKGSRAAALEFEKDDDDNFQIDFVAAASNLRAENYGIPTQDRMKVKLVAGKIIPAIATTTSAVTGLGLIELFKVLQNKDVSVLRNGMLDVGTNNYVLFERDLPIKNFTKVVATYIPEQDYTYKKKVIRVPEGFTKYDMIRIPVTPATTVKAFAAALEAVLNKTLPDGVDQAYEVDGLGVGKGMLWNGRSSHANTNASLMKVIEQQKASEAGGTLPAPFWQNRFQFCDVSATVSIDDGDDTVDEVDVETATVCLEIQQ

Leishmania donovani = experiment: Leishmania intramacrophage assay; format: functional, organism-based; conditions: for IC50: Leishmania donovani
Trypanosoma brucei = experiment: Trypanosoma brucei 72 hour study; format: functional, organism-based; conditions: for IC50: Trypanosoma brucei, 72 h
[4] = microbe, parasite or virus in culture; conditions: Mycobacterium tuberculosis, 72 h, read-out: pIC50 (converted)
[5] = microbe, parasite or virus in culture; conditions: Mycobacterium tuberculosis, 96 h, read-out: pIC50 (converted)
Lysine--tRNA ligase = Lysine--tRNA ligase (Plasmodium falciparum (isolate 3D7), UniProt Q8IDJ8); experiment: Pf-KRS-1 (Lysyl-RNA Synthetase-1, KRS-1, cytosolic KRS) from Plasmodium falciparum. Inhibitor assay, 384 well plate, luminescence read.; format: functional
Lysine--tRNA ligase, sequence (Q8IDJ8 whole entry): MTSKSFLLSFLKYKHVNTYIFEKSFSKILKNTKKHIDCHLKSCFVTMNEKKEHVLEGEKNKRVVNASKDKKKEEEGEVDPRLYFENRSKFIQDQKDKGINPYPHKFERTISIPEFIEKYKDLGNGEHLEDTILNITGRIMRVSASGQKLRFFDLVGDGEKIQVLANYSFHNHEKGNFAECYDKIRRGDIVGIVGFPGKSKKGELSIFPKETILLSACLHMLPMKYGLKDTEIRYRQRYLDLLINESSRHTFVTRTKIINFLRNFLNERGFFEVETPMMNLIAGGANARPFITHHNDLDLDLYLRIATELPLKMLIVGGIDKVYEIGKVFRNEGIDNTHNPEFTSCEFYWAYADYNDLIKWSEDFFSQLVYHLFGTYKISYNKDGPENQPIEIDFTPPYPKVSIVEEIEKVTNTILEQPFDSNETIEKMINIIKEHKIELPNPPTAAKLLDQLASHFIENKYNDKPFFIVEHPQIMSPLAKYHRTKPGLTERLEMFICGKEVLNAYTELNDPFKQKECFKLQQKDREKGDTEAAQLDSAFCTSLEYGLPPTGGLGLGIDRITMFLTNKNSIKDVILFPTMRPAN

[6] = molecular target: T4, Coenzyme A biosynthesis bifunctional protein CoaBC (Mycobacterium tuberculosis (strain ATCC 25618 / H37Rv), UniProt P9WNZ1); experiment: Biomol Green assay for MtCoaBC inhibitor, OD650 read; format: functional
T4 sequence (P9WNZ1 whole entry): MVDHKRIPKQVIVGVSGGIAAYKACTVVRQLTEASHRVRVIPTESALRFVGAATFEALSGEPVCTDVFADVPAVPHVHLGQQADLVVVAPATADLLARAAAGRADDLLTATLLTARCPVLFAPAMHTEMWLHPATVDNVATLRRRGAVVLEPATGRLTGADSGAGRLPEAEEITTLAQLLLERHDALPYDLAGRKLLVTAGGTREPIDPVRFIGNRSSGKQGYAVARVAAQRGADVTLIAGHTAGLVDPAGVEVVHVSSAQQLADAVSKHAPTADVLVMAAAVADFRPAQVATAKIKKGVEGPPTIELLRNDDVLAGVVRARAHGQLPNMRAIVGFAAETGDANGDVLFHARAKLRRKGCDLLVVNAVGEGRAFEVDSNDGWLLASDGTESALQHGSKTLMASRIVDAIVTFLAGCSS

SMILES	pIC50 (Leishmania donovani)	IC50 (Leishmania donovani)	pIC50 (Trypanosoma brucei)	IC50 (Trypanosoma brucei)	further results
Cn1cc(NC(=O)N2CCC(OCc3ccccc3)CC2)ccc1=O	–	–	–	–	IC50 (Histidine--tRNA ligase [1]): 17 µM and 14.8 µM; IC50 (Histidine--tRNA ligase [2]): 11.6 µM and 6.66 µM; IC50 [3]: > 100 µM
CCOC1CCN(C(=O)Nc2ccc(=O)n(C)c2)CC1	–	–	–	–	IC50 (Histidine--tRNA ligase [1]): 23.9 µM and 23.3 µM; IC50 (Histidine--tRNA ligase [2]): 0.995 µM and 1.6 µM and 2.46 µM and 3.11 µM; IC50 [3]: > 100 µM
CCC1CN(C(=O)c2csc3nc(-c4ccc(Cl)cc4)cn23)CCN1 (stereo unspecified)	4.877	12.4 µM	5.161 and 5.156	7.75 µM	IC50 [4]: 17.9 µM; IC50 [5]: 49.2 µM
Cn1cc(NC(=O)C2CC(c3ccccc3)C2)ccc1=O (stereo unspecified)	–	–	–	–	IC50 (Histidine--tRNA ligase [1]): 8.22 µM; IC50 (Histidine--tRNA ligase [2]): 8.88 µM and 10.5 µM; IC50 [3]: > 100 µM
CCCc1ccc(C(C)Nc2ncnc3c2CCNC3)cc1 (stereo unspecified)	4.733	21.6 µM	4.735 and 4.73	20.2 µM	–
Cc1cccc(CN2CCCCC2c2n[nH]cc2-c2cc(C)no2)c1.Cl (stereo unspecified)	–	–	4.638 and 4.693	19.8 µM	–
O=C(NCCc1coc(-c2ccc(F)cc2)n1)NC1CC1	–	–	5.662 and 5.643	2.17 µM	–
CN(C)c1ccc(-c2cc(C(=O)O)cc(S(=O)(=O)NC3CC3)c2)cc1	–	–	5.904 and 6.15	0.716 µM	–
Clc1cccc(C2CCN(c3ncnc4c3CCNC4)C2)c1 (stereo unspecified)	4.674	23.9 µM	4.718 and 4.683	19.9 µM	IC50 [4]: > 50.1 µM; IC50 [5]: 29.6 µM
CC(C)(C)C(=O)NCCc1ccn(-c2ccccc2)n1	–	–	5.66 and 5.649	2.22 µM	–
Cn1cc(NC(=O)N2CCC(Cc3ccccc3)CC2)ccc1=O	–	–	–	–	IC50 (Histidine--tRNA ligase [1]): 3.14 µM and 2.52 µM; IC50 (Histidine--tRNA ligase [2]): 6.79 µM and 5.48 µM; IC50 [3]: > 100 µM
Cc1nc2c(c(NCc3cc4ccccc4s3)n1)CCNCC2	5.15	5.79 µM	5.606 and 5.633	2.29 µM	IC50 [4]: > 50.1 µM; IC50 [5]: 38 µM
Cn1cc(NC(=O)N2CCC2c2ccccc2)ccc1=O (stereo unspecified)	–	–	–	–	IC50 (Histidine--tRNA ligase [1]): 27.5 µM and 31.2 µM; IC50 (Histidine--tRNA ligase [2]): 7.08 µM and 6.57 µM; IC50 (Lysine--tRNA ligase): > 50.1 µM; IC50 [3]: > 100 µM
COc1ccc(-c2nc(CN3CCCC(OC)C3)c(C)o2)c(F)c1 (stereo unspecified)	4.638	30.9 µM	5.649 and 5.647	2.36 µM	–
COCCN(CC1CC1)c1nc(CCN)nc2sc(C)c(C)c12	–	> 25.1 µM	4.814 and 4.866	16.2 µM	–
Cc1[nH]/c(=N\C(=O)c2csc(NC3CC3)n2)sc1C	4.559	47.7 µM	5.049 and 4.932	13.2 µM	–
Cn1cc(NC(=O)N2CCC(CN3CCCC3)CC2)ccc1=O	–	–	–	–	IC50 (Histidine--tRNA ligase [1]): > 100 µM; IC50 [3]: > 100 µM
CC(Nc1ncnc2c1CCNC2)c1ccc2c(c1)CCCC2 (stereo unspecified)	4.725	25 µM	4.894 and 4.867	8.18 µM	–

SMILES	pIC50 (Leishmania donovani)	IC50 (Leishmania donovani)	pIC50 (Trypanosoma brucei)	IC50 (Trypanosoma brucei)	further results
Cc1nc(C2(O)CCCNCC2)sc1CCOc1ccccc1F.Cl (stereo unspecified)	–	–	4.648 and 4.682	21.9 µM	–
Cn1cc(NC(=O)N2CCC(NS(C)(=O)=O)CC2)ccc1=O	–	–	–	–	IC50 (Histidine--tRNA ligase [1]): 52.1 µM and 49.1 µM; IC50 [6]: > 30.2 µM; IC50 (Histidine--tRNA ligase [2]): 2.32 µM and 2.57 µM; IC50 (Lysine--tRNA ligase): > 50.1 µM; IC50 [3]: > 100 µM
CN1[C@H]2CC[C@@H]1CN(C(=O)c1ccc(-c3ccccc3)[nH]1)CC2	4.659	30.6 µM	4.853 and 4.971	9.62 µM	–
CCNC(=O)[C@@H]1C[C@@H](N)CN1Cc1ccc(Sc2ccc(C)cc2)o1	4.875	13.8 µM	5.166 and 5.161	6.83 µM	–
CC(C)N1CCCC(C(=O)N2CCN(c3nsc4ccccc34)CC2)C1 (stereo unspecified)	4.419	30.3 µM	4.562 and 4.572	20.3 µM	–
OC(CNc1nc(C2CCCC2)nc2c1CCNCC2)C(F)(F)F (stereo unspecified)	4.72 and 4.703	18.4 µM	5.186 and 5.15	6.61 µM	–
Cc1c(C)c(C)c2[nH]c(-c3cn(C4CCNCC4)nn3)nc2c1C	4.511	19.8 µM	5.199 and 5.184	6.01 µM	–
CCN1CC(CN(C)c2cc(C)nc(N)n2)Oc2ccccc21 (stereo unspecified)	4.519	35.1 µM	4.724 and 4.705	19.3 µM	–
O=C(NCCc1ccn(-c2ccccc2)n1)N1CCC1	–	–	6.164 and 6.213	0.53 µM	–
CC(N)C(=O)N1CCC(Oc2cccc(C(F)(F)F)c2)CC1 (stereo unspecified)	4.638	19.3 µM	5.074 and 4.999	13.2 µM	–
Cc1sc2nc(CCN)nc(N(C)CCCC3CCCO3)c2c1C (stereo unspecified)	–	> 50.1 µM	4.729 and 4.748	22.5 µM	–
Cc1ccc(CNC2CCN(CCc3ccncc3)CC2)cc1C	4.955	15.6 µM	5.061 and 5.288	6.7 µM	–
Cc1ccc(CNC(CN2CCN(C)CC2)c2ccccc2)cc1C (stereo unspecified)	–	4.57 µM	5.711 and 5.621	1.7 µM	–
CN1CCN(CC(NCc2cccc(O)c2)c2ccccc2)CC1 (stereo unspecified)	–	13.7 µM	5.312 and 5.375	4.3 µM	–
COCC(C)NCc1nc(-c2ccc(C)cc2)c(-c2ccccn2)[nH]1 (stereo unspecified)	4.597	16 µM	–	> 50.1 µM	–
CC(Nc1ncnc2c1CCNC2)c1ccc(C(C)(C)C)cc1 (stereo unspecified)	4.856	19.6 µM	4.656 and 4.706	20.6 µM	–
CCOC1CCCN(C(=O)NCCc2ccn(-c3ccccc3)n2)C1 (stereo unspecified)	–	–	6.745 and 6.727	0.141 µM	–
CCOC(=O)N1CC2(CCNCC2)c2cc(Cl)ccc21.Cl	4.68	22.3 µM	4.722 and 4.602	20.3 µM	–
